Measurements taken from patent US20260337177A1, “TEAD CORE INHIBITORS FOR CANCER THERAPEUTICS” (University of Florida Research Foundation, Incorporated, priority 2023, published 2026).

Tests used:
[1] = tested on: Hs578T cells; test: Hs578T cell growth inhibition (CCK-8, 3 days); type: cell-based; details: Homo sapiens, Hs-578T, 72 h, triple negative breast cancer, read-out: Antiproliferative IC50, Hs578T
Method: The inhibitory effects of compound 22 were assessed against YAP TEAD related NF2-deficient mesothelioma cell NCI-H226 and triple negative breast cancer cell Hs578T. The growth inhibition ratio was measured using a CCK-8 assay after 3 days of treatments.

[2] = molecular target: TEAD2-YBD C380S (Homo sapiens, UniProt Q15562, C380S); test: Intact protein mass spectrometry, TEAD2-YBD C380S variant; type: binding; details: 15 hours
Text: To substantiate the covalent interaction between Compound 22 and TEAD2-YBD, intact mass spectrometry was employed to monitor the protein's mass change upon binding with the compound.
Human TEAD2-YBD (217-447) (TEAD2_HUMAN, UniProtKB Q15562) was expressed and purified as previously described.^79 To eliminate endogenous palmitoylation, Cys380Ser mutant (TEAD2-C380S) was generated and purified using the same protocol. [00392]hTEAD2 was expressed, purified, and deacylated as reported.^52 Briefly, the yap-binding domain (YBD) of […] was cloned in pET28a vector with the N terminal 6x His tag. The recombinant protein was induced at 16 ° C using 0.2 mM isopropyl bD-1-thiogalactopyranoside (IPTG) for 10 h for overexpression in Escherichia coli strain BL2 (DE3) CodonPlus competent cells (Invitrogen). Then cells were harvested, followed by lysis and the supernatant was loaded onto the HisTrap FF column (GE Healthcare). The hTEAD4-YBD was eluted with elution buffer (50 mM Hepes 8.0, 300 mM NaCl, 10% Glycerol, 1 mM TCEP, 125 mM imidazole). To eliminate the endogenous fatty acid, the protein was incubated with 0.2 mM hydroxylamine for 2 h and further purified through gel filtration chromatography in the final buffer (25 mM Hepes pH 8.0, 100 mM NaCl, 1 mM TCEP, and 5% glycerol). Collected fractions were concentrated to 5 mg/mL and flash frozen for further use. […]

[3] = tested on: Huh7 cells; test: Cell cycle analysis by flow cytometry, Huh7; type: cell-based, human; details: 5 and 10 μM, 48 hours
Method: (§1) To study the potential mechanistic pathways responsible for cell proliferation inhibition by compound 22, the change of cell cycle in Huh7 and HepG2 liver cancer cell lines was evaluated. DNA-based cell cycle analysis was performed using flow cytometry. […] To explore whether compound 22 also induces G1 phase arrest in HepG2 cells similar to its effects on Huh7 cells, parallel investigations were performed. […] However, the impact of 22 on inducing G1 phase arrest was less pronounced in HepG2 cells compared to Huh7 cells.
(§2) For cell cycle analysis, cells were fixed with pre-cold 70% ethanol for 30 minutes. Then the cells were washed with PBS and stained with propidium iodide working solution for 30 minutes in the dark. The stained cells were analyzed by flow cytometry. Cell cycle distribution was analyzed using FlowJo_V10 software. For each experiment, 20000 events per sample were recorded. Percentages of cells in G0/G1, S and G2/M phases were calculated and shown in DNA histograms.

[4] = tested on: HepG2 cells; test: Cell cycle analysis by flow cytometry, HepG2; type: cell-based, human; details: 5 and 10 μM
Method: as §1, §2

[5] = tested on: Huh7 xenograft; test: Huh7 mouse xenograft model, antitumor efficacy; type: in vivo, NSG mouse
Method: Based on the favorable in vitro potency and low toxicity, the in vivo antitumor efficacy of compound 22 was further evaluated in the NSG mouse (NOD scid gamma mouse) xenograft model from human Huh7 cells. Sorafenib, the first-line treatment for primary hepatocellular carcinoma (HCC) patients, served as the control. Compound 22 was tested as a monotherapy and in combination with Sorafenib.
The animals were administered 10 mg/kg of compound 22 twice a week for four weeks via intraperitoneal (IP) injection.
The mice were administered 50 mg/kg of compound 22 every three day for 24 days via intraperitoneal (IP) injection. Sorafenib was administered orally at a dose of 100 mg/kg following the same schedule.
Tumors were implanted by subcutaneous injection of 5×10^6 Huh7 cells in 100 μL of PBS containing 10% matrix gel (Coming, NY, USA), into the right flank of the mouse. When the tumor volume reached about 85 mm^3, mice were randomized into the vehicle control group (n=5) and a treatment group (n=5). The vehicle group (n=5) received the vehicle only (50% phosal 50 PG, 45% miglyol 810 N and 5% polysorbate 80), while the treatment group (n=5) was given compound 22 (50 mg/kg in 50% phosal 50 PG, 45% miglyol 810 N and 5% polysorbate 80) via IP injection every three days. After 24 days, mice were euthanized. Sorafenib (100 mg/kg, every three day) was dissolved in 75% Ethanol and Cremophor EL (1:1) and administered directly into the animals' stomachs using a gastric probe. Tumor size and body weight were measured every 3 days, and tumor volume was estimated using the formula volume=½×length×width^2. Tumor growth inhibition value (TGI) was calculated as TGI (%) [1−Vt/Vc]×100, where Vc and Vt were […].

[6] = tested on: Huh7 cells; test: Apoptosis by calcein AM and ethidium homodimer-1 staining, Huh7; type: cell-based, human

TEAD2-YBD C380S, sequence (Q15562 217-447 C380S): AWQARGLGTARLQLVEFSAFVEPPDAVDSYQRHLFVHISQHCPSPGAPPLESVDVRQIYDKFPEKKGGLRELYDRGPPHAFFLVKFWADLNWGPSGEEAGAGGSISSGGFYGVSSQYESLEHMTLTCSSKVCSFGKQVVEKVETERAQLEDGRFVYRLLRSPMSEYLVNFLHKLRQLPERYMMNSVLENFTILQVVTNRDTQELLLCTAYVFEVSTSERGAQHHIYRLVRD

SMILES: O=C(CCl)c1c[nH]c2cc(Cl)c(OCc3cccc(C(F)(F)F)c3)cc12 [Compound 22, 2-chloro-1-(6-chloro-5-((3-(trifluoromethyl)benzyl)oxy)-1H-indol-3-yl)ethan-1-one]
- IC50 [1]: 2600 nM
- Mass shift of TEAD2-YBD C380S variant [2]: absence of a mass shift
- Percentage of cells in G1 phase, Huh7 ([3]; control group 36.4%): 58.2%
- Proportion of cells in S/G2 phases, Huh7 [3]: distinct decrease
- Accumulation in G1 phase, HepG2 [4]: accumulation of HepG2 cells in the G1 phase
- Tumor growth inhibition (TGI) rate ([5]; 10 mg/kg IP twice a week for four weeks): 78%
- Tumor growth inhibition (TGI) rate ([5]; 50 mg/kg IP every three days for 24 days): 75%
- Body weight change ([5]; xenograft mice, FIG. 6C): No significant change
- Huh7 cell apoptosis [6]: promotes Huh7 cell apoptosis
